The values below come from US10112978B2, “Peptide and use thereof” (OSAKA UNIVERSITY, priority 2014, dated 2018).

Entries after “also recorded” stand apart in the source; their conditions may differ.

One assay concerns NFκB. The experiment in a line: Activation of NFκB in THP-1 cells (TNFα production with or without NFκB inhibitors). Type of assay: cell-based, human. To be noted: for production of TNFα: OSK-1 100 ng/mL. The protocol:
THP-1 cells were diluted to 5×10^5 cells in 500 μL of RPMI1640 medium containing 10% FBS, and the cell suspension was added to a 24-well plate at 500 μL/well. QNZ (Enzo, final concentration: 10 μM) in RPMI1640 medium containing 10% FBS, BAY11-7082 (Enzo, final concentration: 10 μM) in RPMI1640 medium containing 10% FBS and RPMI1640 medium containing 10% FBS were added to the plate, and the cells were cultured for 2.5 hours. OSK-1 was added to the wells at a final concentration of 100 ng/mL, and the cells were cultured for 2 hours. After that, the culture supernatant was harvested, and the TNFα concentration in the supernatant was measured by ELISA.

A further assay has as its system inflammasomes. Description: Inflammasome activation: IL-1β and TNFα production in NLRP3-knockdown and control siRNA THP-1 cells. The class given is cell-based, human. To be noted: OSK-1 10 μg/mL, 16 hours. The protocol: THP-1 cells were transfected with a siRNA against the inflammasome component NLRP3 (NOD-like receptor family, pyrin domain containing 3) (final concentration: 100 nM, Hs_CIAS 1_6 and Hs_CIAS 1_9, manufactured by QIAGEN) or a control siRNA using a transfection reagent (6 μL/well, HiPerFect Transfection Reagent, manufactured by QIAGEN). After overnight culture, the expression level of NLRP3 was determined by western blotting.
Each type of the THP-1 cells was suspended at 1×10^6 cells/mL in RPMI1640 medium containing 1 μg/mL LPS and 10% FBS, and incubated in a CO2 incubator for 3 hours for cell priming. The cell suspension was centrifugated, the cells were resuspended at 1×10^6 cells/mL in RPMI1640 medium containing 10% FBS, and the cell suspension was added to a 24-well plate at 500 μL/well. An OSK-1 solution was prepared at a 2-fold higher concentration than the final concentration in RPMI1640 medium containing 10% FBS and added to the plate at 500 μL/well. After 16 hours, the culture supernatant was harvested, and the IL-1β and TNFα concentrations in the supernatant were measured by ELISA.

Another assay relates to C57/BL6 mice. The experiment in a line: Adjuvant effect in mice (anti-Ang II antibody titer after Ang II-KLH vaccine). The class given is in vivo. Conditions: Ang II-KLH 2 μg/animal + OSK-1 100 μg/animal intracutaneously 3 times at 2-week intervals. The protocol:
For the Freund's adjuvant group, complete Freund's adjuvant was used at the first administration, and incomplete Freund's adjuvant was used at the second and third administration. Blood was drawn before the first administration and 2, 4, 6 and 8 weeks after the first administration, and the anti-Ang II antibody titer was measured.
The antibody titer was measured in the same manner as in Example 7.

Assay [1] concerns PMA-differentiated THP-1 cells. Description: Cytokine and chemokine production in PMA-differentiated THP-1 cells (ELISA). The class given is cell-based, human. The protocol: THP-1 cells were suspended at 5×10^5 cells/mL in RPMI1640 medium containing 50 ng/mL PMA (phorbol 12-myristate 13-acetate) and 10% FBS, and seeded at 5×10^5 cells/well on a 24-well plate. The cells were cultured in a CO2 incubator for 2 days for differentiation into macrophages. After the 2-day culture, the medium was removed, an OSK-1 solution in RPMI1640 medium containing 10% FBS was added to the wells, and overnight culture was performed. Sixteen hours after the addition, the culture supernatant was harvested, and the cytokine concentrations in the supernatant were measured by ELISA.
The experiment in this example was performed in the same manner as in Example 3, and the IL-1β, IL-18, TNFα, IL-6, RANTES, MIP-1α and MIP-1β concentrations in the culture supernatant were measured.

The subject of a further assay is LPS-primed THP-1 cells. Description: Cytokine production in LPS-primed THP-1 cells (ELISA of culture supernatant). The class given is cell-based, human. The protocol: Human monocyte cell line THP-1 (JCRB registration number: JCRB0112) was suspended at 1×10^6 cells/mL in RPMI1640 medium containing 1 μg/mL lipopolysaccharide (LPS) and 10% FBS, and incubated in a CO2 incubator for 3 hours for cell priming. The cell suspension was centrifugated, the cells were resuspended at 1×10^6 cells/mL in RPMI1640 medium containing 10% FBS, and the cell suspension was added to a 24-well plate at 500 μL/well. An OSK-1 solution was prepared at a 2-fold higher concentration than the final concentration in RPMI1640 medium containing 10% FBS and added to the plate at 500 μL/well. After about 16 hours, the culture supernatant was harvested, and the cytokine concentrations in the supernatant were measured by ELISA.
THP-1 cells were suspended at 1×10^6 cells/mL in RPMI1640 medium containing 1 μg/mL LPS and 10% FBS, and incubated in a CO2 incubator for 3 hours for cell priming. The cell suspension was centrifugated, the cells were resuspended at 1×10^6 cells/mL in RPMI1640 medium containing 10% FBS, and the cell suspension was added to a 24-well plate at 500 μL/well. […] After about 16 hours, the culture supernatant was harvested, and the cytokine concentrations in the supernatant were measured by ELISA.
In general terms: In an ELISA, binding on a coated surface is turned into a signal by an enzyme label.

The subject of assay [2] is mouse bone marrow-derived dendritic cells. Description: Cytokine production in mouse bone marrow-derived dendritic cells (ELISA). Type of assay: cell-based. Conditions: about 16 hours. The protocol:
Bone marrow cells were harvested from the thigh bone of a C57BL/6 mouse, seeded in RPMI1640 medium containing […] GM-CSF (granulocyte macrophage colony-stimulating factor) and 10% FBS, and cultured for 3 days. After the 3-day culture, a fresh medium was added and culture was continued for additional 4 days. The cells not adherent on the culture plate were harvested and regarded as bone marrow-derived dendritic cells. The cells were suspended at 2×10^6 cells/mL in RPMI1640 medium containing 10% FBS, and the cell suspension was added to a 24-well plate at 500 μL/well. An OSK-1 solution was prepared at a 2-fold higher concentration than the final concentration in RPMI1640 medium containing 10% FBS and added to the plate at 500 μL/well. After about 16 hours, the culture supernatant was harvested, and the cytokine concentrations in the supernatant were measured by ELISA.

Setting [3] is: compared with alum or the CpG nucleotide.

As to “ELKLIFLHRLKRLRKRLKRK (Ac-ELKLIFLHRLKRLRKRLKRK-NH2) [OSK-1]”, the “production of TNFα” value in the assay with NFκB (2 hours) is reported as “induced the production of TNFα”; in the assay on NFκB (in the presence of NFκB inhibitor BAY11-7082 10 μM) it was “inhibited in the presence of the NFκB inhibitor QNZ or BAY11-7082”; in the assay with NFκB (in the presence of NFκB inhibitor QNZ 10 μM) it was “inhibited in the presence of the NFκB inhibitor QNZ”; in the assay with inflammasomes (NLRP3-knockdown and control siRNA THP-1 cells) it was “induced by OSK-1 regardless of whether NLRP3 expression was knocked down or not”; in the assay with LPS-primed THP-1 cells (setting [3]) it was “more strongly induced”. Besides, the “activating NFκB” value in the assay with NFκB (concluded from TNFα production with and without NFκB inhibitors) was “effective for activating NFκB”. The “production of IL-1β” value with inflammasomes (LPS-primed NLRP3-knockdown THP-1 cells) was “the induction of IL-1β production by OSK-1 was inhibited”; in the assay with LPS-primed THP-1 cells (setting [3]), “more strongly induced”. Moreover, the “anti-Ang II antibody titer” value with C57/BL6 mice was “increase in the anti-Ang II antibody titer was observed; also recorded: smaller than that in the Freund's adjuvant (FA) group, but comparable to that in the alum group”. Besides, in assay [1] (Example 11, ELISA), the “production of the chemokines and cytokines (IL-1β, IL-18, TNFα, IL-6, RANTES, MIP-1α and MIP-1β)” value is “induced the production of the chemokines and cytokines in the PMA-differentiated THP-1 cells in an OSK-1 concentration dependent manner”. In addition, the “production of the cytokines (IL-1β, IL-18, TNFα and IL-6 concentrations in the culture supernatant)” value in assay [1] (OSK-1 at 30 μg/mL, 16 hours, ELISA) is on record as “strongly induced the production of the cytokines”; in the assay with LPS-primed THP-1 cells (about 16 hours, ELISA), “induce the production of the cytokines in the LPS-primed THP-1 cells in an OSK-1 concentration dependent manner”. In addition, in assay [2], the “production of the cytokines (IL-1β, IFNγ, TNFα, IL-6 and IL-12p70)” value is reported as “induced the production of the cytokines in the mouse bone marrow-derived dendritic cells in an OSK-1 concentration dependent manner”.
